Test results as given in patent US4904764A, “4-diazo-3-methyl-2,5-cyclohexadine-1-one and pharmacetically acceptable salts thereof” (E. R. Squibb & Sons, Inc., priority 1985, dated 1990).
≈ marks a conversion by molar mass, not a printed value.

Legend:
Shigella sonnei SC8449 = assay: Agar dilution assay, aerobic test organisms (MIC); format: cell-based; settings: S. sonnei SC8449, K-10 agar, 10^4 CFU, 37° C., 18 hours, protected from light
[1] = tested on: Bacteroides thetaiotamicron SC9005; assay: Agar dilution assay, anaerobic bacteria (MIC); format: cell-based; settings: B. thetaiotamicron SC9005, DST agar, 10^5 CFU, 37° C., 18 hours, anaerobic chamber
[2] = tested on: Bacteroides thetaiotamicron SC10278; assay: Agar dilution assay, anaerobic bacteria (MIC); format: cell-based; settings: B. thetaiotamicron SC10278, DST agar, 10^5 CFU, 37° C., 18 hours, anaerobic chamber
[3] = tested on: Bacteroides fragilis SC9844; assay: Agar dilution assay, anaerobic bacteria (MIC); format: cell-based; settings: B. fragilis SC9844, DST agar, 10^5 CFU, 37° C., 18 hours, anaerobic chamber
[4] = tested on: Bacteroides fragilis SC10277; assay: Agar dilution assay, anaerobic bacteria (MIC); format: cell-based; settings: B. fragilis SC10277, DST agar, 10^5 CFU, 37° C., 18 hours, anaerobic chamber
[5] = tested on: Bacteroides fragilis SC11085; assay: Agar dilution assay, anaerobic bacteria (MIC); format: cell-based; settings: B. fragilis SC11085, DST agar, 10^5 CFU, 37° C., 18 hours, anaerobic chamber
[6] = tested on: Clostridium perfringens SC11256; assay: microbe, parasite or virus in culture; format: cell-based; settings: SC11256, 18 h
[7] = tested on: Clostridium septicum SC1780; assay: Agar dilution assay, anaerobic bacteria (MIC); format: cell-based; settings: SC1780, 18 h
Procedure: The susceptibility of a number of anaerobic bacteria was also determined by an agar dilution technique. Test organisms were prepared from 24-48 hour cultures grown in Chopped Meat Broth (Scott Laboratories, Fiskeville, R.I.) or from washings from chocolate agar slants. These slants were prepared by adding hemoglobin to Proteose #3 Agar (Difco) to a concentration of one percent. The growth was washed off the slants with Brain Heart Infusion Broth (BBL Microbiology Systems) and diluted to a density of 10^8 CFU/ml. The subject compound was dissolved in the appropriate diluent at a concentration of 1000 μg/ml.
The agar dilution assays yielded the following results: […]

[8] = tested on: Clostridium difficile SC11251; assay: Agar dilution assay, anaerobic bacteria (MIC); format: cell-based; settings: Clostridioides difficile; C. difficile SC11251; DST agar, 10^5 CFU, 37° C., 18 hours, anaerobic chamber
[9] = tested on: Hemophilus vaginalis SC8568; assay: Agar dilution assay, anaerobic bacteria (MIC); format: cell-based; settings: Gardnerella vaginalis; H. vaginalis SC8568; DST agar, 10^5 CFU, 37° C., 18 hours, anaerobic chamber
[10] = tested on: Hemophilus vaginalis SC9640; assay: Agar dilution assay, anaerobic bacteria (MIC); format: cell-based; settings: Gardnerella vaginalis; H. vaginalis SC9640; DST agar, 10^5 CFU, 37° C., 18 hours, anaerobic chamber
[11] = tested on: Fusobacterium necrophorum SC10338; assay: Agar dilution assay, anaerobic bacteria (MIC); format: cell-based; settings: F. necrophorum SC10338, DST agar, 10^5 CFU, 37° C., 18 hours, anaerobic chamber
[12] = tested on: Pseudomonas anaerobius SC11263; assay: Agar dilution assay, anaerobic bacteria (MIC); format: cell-based; settings: DST agar, 10^5 CFU, 37° C., 18 hours, anaerobic chamber
[13] = Photolability (half-life); format: physicochemical; settings: exposure to light; read-out: photolabile, half-life
[14] = tested on: gram positive and gram negative bacteria; assay: Antibacterial activity (general statement); format: cell-based
[15] = tested on: Staphylococcus aureus SC1276; assay: Agar dilution assay, aerobic test organisms (MIC); settings: SC1276, 18 h
[16] = tested on: Staphylococcus aureus SC2399; assay: Agar dilution assay, aerobic test organisms (MIC); settings: SC2399, 18 h
[17] = tested on: Staphylococcus aureus SC2400; assay: Agar dilution assay, aerobic test organisms (MIC); settings: SC2400, 18 h
[18] = tested on: Streptococcus faecalis SC9011; assay: Agar dilution assay, aerobic test organisms (MIC); settings: Enterococcus faecalis, SC9011, 18 h
[19] = tested on: Streptococcus agalactiae SC9287; assay: Agar dilution assay, aerobic test organisms (MIC); settings: SC9287, 18 h
Escherichia coli SC8294 = assay: Agar dilution assay, aerobic test organisms (MIC); settings: SC8294, 18 h
Escherichia coli SC10896 = assay: Agar dilution assay, aerobic test organisms (MIC); settings: SC10896, 18 h
[20] = tested on: Escherichia colid SC10909; assay: Agar dilution assay, aerobic test organisms (MIC); settings: SC10909, 18 h
[21] = tested on: Klebsiella aerogenes SC10440; assay: Agar dilution assay, aerobic test organisms (MIC); settings: SC10440, 18 h
[22] = tested on: Klebsiella pneumoniae SC9527; assay: Agar dilution assay, aerobic test organisms (MIC); settings: SC9527, 18 h
Proteus mirabilis SC3855 = assay: Agar dilution assay, aerobic test organisms (MIC); settings: SC3855, 18 h
[23] = tested on: Salmonella typhosa SC1195; assay: Agar dilution assay, aerobic test organisms (MIC); settings: Salmonella enterica, 18 h
[24] = tested on: Enterobacter cloacae SC8236; assay: Agar dilution assay, aerobic test organisms (MIC); settings: SC8236, 18 h
[25] = tested on: Pseudomonas aeruginosa SC8333; assay: Agar dilution assay, aerobic test organisms (MIC); settings: SC8333, 18 h

COC1=CC(=O)C=CC1=[N+]=[N-]
MIC (Shigella sonnei SC8449): 1.6 µg/mL (≈ 10.7 µM)
MIC [1]: 0.4 µg/mL (≈ 2.66 µM)
MIC [2]: 0.4 µg/mL (≈ 2.66 µM)
MIC [3]: 0.4 µg/mL (≈ 2.66 µM)
MIC [4]: 0.4 µg/mL (≈ 2.66 µM)
MIC [5]: 0.2 µg/mL (≈ 1.33 µM)
MIC [6]: 0.2 µg/mL (≈ 1.33 µM)
MIC [7]: < 0.05 µg/mL
MIC [8]: 0.4 µg/mL (≈ 2.66 µM)
MIC [9]: 0.2 µg/mL (≈ 1.33 µM)
MIC [10]: 0.4 µg/mL (≈ 2.66 µM)
MIC [11]: < 0.05 µg/mL
MIC [12]: < 0.05 µg/mL
half-life [13]: < 2 h
activity against bacteria [14]: activity against a variety of gram positive and gram negative bacteria, particularly against anaerobic bacteria
MIC [15]: 2.5 µg/mL (≈ 16.7 µM)
MIC [16]: 12.5 µg/mL (≈ 83.3 µM)
MIC [17]: 12.5 µg/mL (≈ 83.3 µM)
MIC [18]: 6.3 µg/mL (≈ 42 µM)
MIC [19]: 6.3 µg/mL (≈ 42 µM)
MIC (Escherichia coli SC8294): 3.1 µg/mL (≈ 20.6 µM)
MIC (Escherichia coli SC10896): 6.3 µg/mL (≈ 42 µM)
MIC [20]: 3.1 µg/mL (≈ 20.6 µM)
MIC [21]: 12.5 µg/mL (≈ 83.3 µM)
MIC [22]: 25 µg/mL (≈ 167 µM)
MIC (Proteus mirabilis SC3855): 3.1 µg/mL (≈ 20.6 µM)
MIC [23]: 1.6 µg/mL (≈ 10.7 µM)
MIC [24]: 50 µg/mL (≈ 333 µM)
MIC [25]: 25 µg/mL (≈ 167 µM)
